# “Also recorded” adds a separate entry of the source.
# Assays:
# [1] = target: T1, PTP1B1-394 (Homo sapiens, UniProt P18031); assay: Gel filtration for aggregation of PTP1B; conditions: gel filtration elution profile
# T1 construct: elution profile of PTP1B1-394 in the absence (circles) and presence (triangles) of DPM-1001; His-tag; made in house; host or cells: Escherichia coli BL21 (DE3)-RIL
# Procedure: PTP1B (5 μM) was incubated with 10 μM MSI1436 in a final volume of 200 μl buffer (50 mM HEPES, pH 7.0, 100 mM NaCl, 0.2 mM EDTA, 2 mM DTT) at 4° C. The reaction mixture was then subjected to gel filtration on a Superdex 200 column (HR30/10; Pharmacia Biotech Inc.). Prior to loading the MSI1436-saturated protein sample, the column was equilibrated with 50 mM HEPES, pH 7.0, 100 mM NaCl, 0.2 mM EDTA and 2 mM DTT. The void volume (Vo) and total volume (Vt) were measured using blue dextran and Coomassie blue dye, respectively. Fractions of 0.5 ml were collected, and the protein concentration in each sample was determined by Bradford assay or by recording the UV absorption spectrum at 280 nm.
# [2] = ESI-MS analysis of complex formation with a series of other metal ions; assay type: binding; conditions: panel of metals
# Procedure: Eight equivalents of M(NO3)2·xH2O or MSO4·xH2O were reacted with 1 eq. of DPM-1001, DPM-1003 or analog 2 (1 mM in H2O). The reaction solutions were stirred at RT, 40° C. and 80° C. for 2 h. Each sample was diluted 5-fold in 50% methanol, 0.1% formic acid and loaded into a 500 μL syringe. A Thermo Vantage triple quadrupole mass spectrometer (Thermo Scientific), equipped with an HESI spray source was coupled to an Accela HPLC system (Thermo Scientific). Mobile phase A consisted of 0.1% formic acid and mobile phase B consisted of 0.1% formic acid in methanol. Isocratic flow was set to 50% B at 200 μL/min. 200 μl samples were injected into the LC flow line via syringe pump at 10 μL/min and electrosprayed into the Vantage triple quadrupole mass spectrometer. A spray voltage of 4.3 kV was used along with a capillary temperature of 350° C. Each full MS scan was 0.5 s and data were collected with a scan range of 200 m/z to 900 m/z over 1 min.
# [3] = Body weight in diet-induced obesity; assay type: in vivo, C57Bl6/J mice
# Procedure: All protocols were approved by the Institutional Animal Use and Care Committee of Cold Spring Harbor laboratory. 10 week-old male mice fed chow diet or high-fat diet (D12492) were acclimatized for 10 days under standard conditions before experiments. Mice were injected intraperitoneally (i.p.) once daily with vehicle, 5 mg/kg of DPM-1001 intraperitoneally or orally for 50 days. Mice were euthanized after 6 h of fasting, and serum samples were collected to measure the metabolic parameters and tissue samples were collected for studying changes in signaling.
# [4] = system: fibroblasts derived from Wilson's disease patients; assay: Copper-induced toxicity in Wilson's disease patient-derived fibroblasts; assay type: cell-based
# Procedure: HepG2 cells purchased from ATCC were cultured in RPMI media containing 10% FBS, 5% CO2 at 37 C. Control (AG09319) and Wilson's disease patient-derived fibroblasts (GM00032, GM00033, GM05257, GM12158, GM05798 and GM11778) were obtained from Coriell Biorepository and cultured in DMEM, 10% FBS, 5% CO2 at 37° C.
# For cell survival assays, 10,000 cells were seeded in a 96 well plate and cultured until fully confluent (90%). To these cells, ATP7B siRNAs or scrambled siRNA (negative control) purchased from Qiagen and Santa Cruz Biotechnology were transfected. Lipofectamine RNAiMAX reagent (Thermofischer) and siRNAs were diluted into a final volume of 100 μl in Opti-MEM (Gibco). The mixture was incubated at room temperature for 30 min, following which 800 μl of Opti-MEM was added to the mixture. The above transfection solution was overlaid onto cells at a final concentration of 5 nM siRNA. Transfection of HepG2 cells with scrambled siRNA served as negative control. Twelve hours after the transfection, complete media was added to each well. Following which, knockdown efficiency was checked (24 hours later) and cells were exposed to varying concentration of copper (0-1 mM) for 12 h and cell viability was determined using the MTT assay as previously described (37). […]
# [5] = system: metallothionein; assay: Metallothionein quantitation in liver and brain; assay type: in vivo, mouse; conditions: TX mice
# Procedure: Tissue samples (100 mg liver or 25 mg brain) were rinsed in PBS to remove excess blood and homogenized using a dounce homogenizer on ice (PBS, 1% tween). The samples were centrifuged at 5000×g for 5 minutes and the supernatant was collected. Total protein in the supernatant was measured using Bradford reagent and an equal amount of each sample (based on protein concentration) was used to measure metallothionein levels. Mouse metallothionein Elisa kit was purchased from Lifespan Biosciences, Inc and the assay was performed according to the users manual.
# [6] = system: TX mice; assay: Liver histology; assay type: in vivo, mouse
# Excerpt: Liver tissues from wild-type and TX mice from untreated and DPM-1001-treated mice were sectioned and stained with H&E or rhodanine. Whole-slide, digitized images of H&E-stained tissue were captured using the Aperio ScanScope XT automated scanning system (Vista, CA). Image J software was used to quantitate rhodanine staining.
# T1 sequence (P18031 1-394): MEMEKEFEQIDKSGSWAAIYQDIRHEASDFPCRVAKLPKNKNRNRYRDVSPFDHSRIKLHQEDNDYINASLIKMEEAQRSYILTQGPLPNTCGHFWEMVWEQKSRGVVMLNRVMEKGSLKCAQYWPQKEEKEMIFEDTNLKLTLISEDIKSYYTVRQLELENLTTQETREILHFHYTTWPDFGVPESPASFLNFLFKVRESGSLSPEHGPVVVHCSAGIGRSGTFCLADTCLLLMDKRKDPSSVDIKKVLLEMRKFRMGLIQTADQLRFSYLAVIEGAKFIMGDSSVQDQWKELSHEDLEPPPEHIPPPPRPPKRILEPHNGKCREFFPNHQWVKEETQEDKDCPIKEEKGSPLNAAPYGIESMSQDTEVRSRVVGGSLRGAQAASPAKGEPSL
compound,measurement,setting,value
COC(=O)CCC(C)C1CCC2C3C(O)CC4CC(NCCCCNCc5ccccn5)CCC4(C)C3CCC12C (centres unmarked) [DPM-1001],aggregation of PTP1B,[1],did not induce aggregation
same,complex formation with other metals,[2],none formed a complex with the compound
same,weight loss in chow fed mice,[3]; chow diet,without weight loss; also recorded: no weight loss
same,onset of weight loss,[3]; high fat diet-fed mice,started losing weight within five days of treatment
same,protection from copper-induced cell death,[4],prevents such cytotoxic effects; also recorded: inhibited copper-induced cell death
same,metallothionein levels,[5],prevents elevated metallothionein expression in liver; also recorded: lowered metallothionein levels in the liver and the brain
same,liver morphology,[6]; TX mice,"prevents the enlarged hepatocytes with irregular shape and arrangement large cytoplasmic lipid droplets in liver; also recorded: appeared similar to those from wild-type mice with normal hepatocyte size, shape and arrangement"
same,liver morphology,[6]; wild-type mice,no obvious abnormalities were detected

# — patent US12178825B2, “Method and compositions for forming a copper-containing complex and uses thereof” (COLD SPRING HARBOR LABORATORY, priority 2017, dated 2024)
